Test results: patent US12514832B2, “Methods for using low-dose colchicine after myocardial infarction” (INSTITUT DE CARDIOLOGIE DE MONTREAL, priority 2019, dated 2026)
Values joined by “and” are separate entries in the source; they are usually repeats but may differ in a detail not shown here. Equal entries are not always repeated.

Test system: rs149354567 (CDRT8/PMP22, chromosome 17); rs10811106 (SAXO1, chromosome 9)
Assay: COLCOT pharmacogenomic GWAS and Cox / recurrent-event analyses of the primary efficacy end point by genotype
Format: in vivo, human
Conditions: for Primary end point, HR (95% CI) for rs149354567 minor (GA) versus major (G) allele: Cox, controlling for age, sex, C1-C10; for Recurrent primary end point events, Hazard Ratio (95% CI), Andersen-Gill model / Recurrent primary end point events, Hazard Ratio (95% CI), WLW model K = 2, 1st Event / Recurrent primary end point events, Hazard Ratio (95% CI), WLW model K = 2, 2nd Event / Recurrent primary end point events, Hazard Ratio (95% CI), WLW model K = 2, Average / Recurrent primary end point events, Rate Ratio (95% CI), Negative binomial model: colchicine vs placebo
Description: FIG. 3 is a Manhattan plot of a Genome-wide Association Study (GWAS) with common single-nucleotide polymorphisms (SNPs) with minor allele frequency (MAF)≥5% for the primary efficacy end point using a survival analysis (coxph) regression with all patients in colchicine treatment arm (compliant ITT pgx population) in the COLCOT cohort, controlling for age, sex, principal components (C1-C10) with a threshold of 5.000E-08 (4,462,492 variants and 702 samples).
FIG. 4 is a plot of SNPs located on chromosome 17 (from 14,623,118 to 15,623,118 bp) for the primary efficacy end point using a survival analysis (coxph) regression with all patients in colchicine treatment arm (compliant ITT pgx population) in the COLCOT cohort, controlling for age, sex, principal components (C1-C10) with a threshold of 5.000E-08 (4,462,492 variants and 702 samples).
(§1) FIG. 8 is a Manhattan plot of GWAS with common SNPs with MAF≥5% for the primary efficacy endpoint using a survival analysis (coxph) regression with male patients in colchicine treatment arm (compliant ITT pgx population) in the COLCOT cohort, controlling for age, sex specific principal components (SC1-SC10) with a threshold of 5.000E-08 (4,455,743 variants and 576 samples).
as §1, with “FIG. 9” for “FIG. 8”, “a” for “a Manhattan”, “of single-nucleotide polymorphisms (SNPs) located on chromosome 9 (from 18,537,533 to 19,537,533 bp)” for “of GWAS with common SNPs with MAF≥5%”, “for” for “for the”
A Genome-wide Association Study (GWAS) was performed for the COLCOT primary efficacy end points. The primary efficacy endpoints were, the earliest occurrence of: cardiovascular death, resuscitated cardiac arrest, acute myocardial infarction, stroke, or urgent hospitalization for angina requiring coronary revascularization.
A plot of SNPs located on chromosome 17 (from 14,623,118 to 15,623, 118 bp) for the primary efficacy end point using a survival analysis (coxph) regression with all patients in colchicine treatment arm (compliant ITT pgx population) in the COLCOT cohort is shown in FIG. 4. Within this region, SNP rs149354567 was identified for further analysis (Table 10). SNP rs149354567 is intergenic for the CDR8T (CMT1A duplicated region transcript 8) gene and the PMP22 (peripheral myelin protein 22) gene.
A Cox statistical analysis for the primary endpoint comparing the chromosome 17 SNP rs149354567 minor versus major alleles by treatment arms is shown in Table 11 below.
A Cox statistical analysis for the primary end point comparing colchicine versus placebo for SNP rs149354567 genotypes is shown in Table 12 below.
The above analysis is based on time to first event among the components of the primary end point. Three other analyses were also considered to account for multiple events within subjects. These analyses make use of all events, including the ones that occur after the first. The Wei, Lin, and Weissfeld (WLW) marginal model, the Andersen and Gill (AG) model, and the negative binomial model were used.
A further region of the genome with a genetic variant, rs10811106, that, in males, is associated with efficacy of colchicine in the prevention of cardiovascular events in participants recruited within 30 days of a myocardial infarction (acute coronary syndrome) was identified using similar statistical analyses (FIG. 8). SNP rs10811106 is intronic in the SAXO1 (stabilizer of axonemal microtubules 1) gene (FIG. 9). SNP rs10811106 was associated with the primary efficacy endpoint of COLCOT (composite of cardiovascular death, resuscitated cardiac arrest, myocardial infarction, stroke, or urgent hospitalization for angina requiring coronary revascularization) in the colchicine treatment arm (P=5.8×10^−8).

[1] = colchicine arm N=2, rs149354567 genotype GA/GA
[2] = colchicine arm N=102, rs149354567 genotype G/GA
[3] = colchicine arm N=585, rs149354567 genotype G/G
[4] = colchicine arm N=689, all rs149354567 genotypes
[5] = rs10811106 chr 9, EA T vs NEA C, N 564, 30 events

COc1cc2c(c(OC)c1OC)-c1ccc(OC)c(=O)cc1[C@@H](NC(C)=O)CC2 [Colchicine, colchicine]
fewer cardiovascular events with colchicine compared to placebo (carriers of genotype G-/G- at rs149354567): 40% | Recurrent primary end point events, Hazard Ratio (95% CI) for one unit increase of rs149354567 dosage, Andersen-Gill model (colchicine arm): 4.55 (2.45; 8.46) | Recurrent primary end point events, Hazard Ratio (95% CI) for one unit increase of rs149354567 dosage, WLW model K = 2, 1st Event (colchicine arm): 5.30 (2.90; 9.70) | Recurrent primary end point events, Hazard Ratio (95% CI) for one unit increase of rs149354567 dosage, WLW model K = 2, 2nd Event (colchicine arm): 3.96 (0.99; 15.80) | Recurrent primary end point events, Hazard Ratio (95% CI) for one unit increase of rs149354567 dosage, WLW model K = 2, Average (colchicine arm): 5.28 (2.88; 9.66) | Recurrent primary end point events, Rate Ratio (95% CI) for one unit increase of rs149354567 dosage, Negative binomial model (colchicine arm): 4.58 (2.40; 8.74) | Primary end point events rate per 100 subject-months (colchicine arm N=2, genotype GA/GA): 0 per 100 subject-months | Total number of primary end point events (colchicine arm N=2, genotype GA/GA, 24 follow-up months): 0 | Primary end point, patients with events (at least one event) (colchicine arm N=2, rs149354567 GA/GA): 0 | Number of subjects with 0 primary end point events [1]: 2 | Number of subjects with 1 primary end point event [1]: 0 | Number of subjects with 2 primary end point events [1]: 0 | Number of subjects with 3 primary end point events [1]: 0 | Number of subjects with 4 primary end point events [1]: 0 | Primary end point events rate per 100 subject-months (colchicine arm N=102, genotype G/GA): 0.71 per 100 subject-months | Total number of primary end point events (colchicine arm N=102, genotype G/GA, 2678 follow-up months): 19 | Primary end point, patients with events (at least one event) (colchicine arm N=102, rs149354567 G−/GA): 17 | Number of subjects with 0 primary end point events [2]: 85 | Number of subjects with 1 primary end point event [2]: 15 | Number of subjects with 2 primary end point events [2]: 2 | Number of subjects with 3 primary end point events [2]: 0 | Number of subjects with 4 primary end point events [2]: 0 | Primary end point, patients with events (colchicine arm N=104, rs149354567 G−/GA+GA/GA): 17 | Primary end point events rate per 100 subject-months (colchicine arm N=585, genotype G/G): 0.16 per 100 subject-months | Total number of primary end point events (colchicine arm N=585, genotype G/G, 14370 follow-up months): 23 | Primary end point, patients with events (at least one event) (colchicine arm N=585, rs149354567 G−/G−): 20 | Number of subjects with 0 primary end point events [3]: 565 | Number of subjects with 1 primary end point event [3]: 17 | Number of subjects with 2 primary end point events [3]: 3 | Number of subjects with 3 primary end point events [3]: 0 | Number of subjects with 4 primary end point events [3]: 0 | Number of subjects with 0 primary end point events [4]: 652 | Number of subjects with 1 primary end point event [4]: 32 | Number of subjects with 2 primary end point events [4]: 5 | Number of subjects with 3 primary end point events [4]: 0 | Number of subjects with 4 primary end point events [4]: 0 | Primary end point events rate per 100 subject-months [4]: 0.25 per 100 subject-months | Total number of primary end point events (colchicine arm N=689, all rs149354567 genotypes, 17072 follow-up months): 42 | Primary end point, patients with events (at least one event) (colchicine arm N=689, all rs149354567 genotypes, compliant ITT pgx population): 37 | Primary end point, % of events (colchicine arm, all rs149354567 genotypes): 5.4% | Primary end point, hr per effect allele, rs75780450 (T vs C) (colchicine arm, males + females, compliant ITT pgx population): 4.611 | Primary end point, hr per effect allele, rs1854156 (C vs G) (colchicine arm, males only): 5.104 | Primary end point, hr per effect allele, rs10118790 (A vs G) (colchicine arm, males only): 5.05 | Primary end point, hr per effect allele, rs10811106 (T vs C) (colchicine arm, males only): 5.503 | Primary end point, hr per effect allele, rs10963895 (A vs G) (colchicine arm, males only): 4.191 | Primary end point, hr per effect allele, rs28733572 (C vs G) (colchicine arm, males only): 5.043 | Primary end point, % of events (colchicine arm, rs149354567 G−/GA): 16.7% | Primary end point, % of events (colchicine arm, rs149354567 G−/GA+GA/GA): 16.3% | Primary end point, % of events (colchicine arm, rs149354567 G−/G−): 3.4% | Primary end point, HR (95% CI) for rs149354567 minor (GA) versus major (G) allele (colchicine arm, compliant ITT pgx population): 5.30 (2.84-9.89) | Primary end point, HR (95% CI) for rs149354567 minor (GA) versus major (G) allele (colchicine arm, compliant ITT pgx population, listed as colchicine): 5.30 and 5.299 | Recurrent primary end point events, Hazard Ratio (95% CI), Andersen-Gill model (all rs149354567 genotypes): 0.61 (0.39; 0.96) | Recurrent primary end point events, Hazard Ratio (95% CI), WLW model K = 2, 1st Event (all rs149354567 genotypes): 0.82 (0.53; 1.28) | Recurrent primary end point events, Hazard Ratio (95% CI), WLW model K = 2, 2nd Event (all rs149354567 genotypes): 0.28 (0.10; 0.73) | Recurrent primary end point events, Hazard Ratio (95% CI), WLW model K = 2, Average (all rs149354567 genotypes): 0.80 (0.52; 1.25) | Recurrent primary end point events, Rate Ratio (95% CI), Negative binomial model (all rs149354567 genotypes): 0.57 (0.34; 0.94) | Recurrent primary end point events, Hazard Ratio (95% CI), Andersen-Gill model (rs149354567 genotype G/G): 0.48 (0.27; 0.85) | Recurrent primary end point events, Hazard Ratio (95% CI), WLW model K = 2, 1st Event (rs149354567 genotype G/G): 0.60 (0.34; 1.04) | Recurrent primary end point events, Hazard Ratio (95% CI), WLW model K = 2, 2nd Event (rs149354567 genotype G/G): 0.25 (0.07; 0.85) | Recurrent primary end point events, Hazard Ratio (95% CI), WLW model K = 2, Average (rs149354567 genotype G/G): 0.59 (0.34; 1.03) | Recurrent primary end point events, Rate Ratio (95% CI), Negative binomial model (rs149354567 genotype G/G): 0.43 (0.23; 0.82) | Recurrent primary end point events, Hazard Ratio (95% CI), Andersen-Gill model (rs149354567 genotype G/G, listed as colchicine): 0.48 | Recurrent primary end point events, Hazard Ratio (95% CI), Andersen-Gill model (rs149354567 genotype G/GA): 0.84 (0.34; 2.11) | Recurrent primary end point events, Hazard Ratio (95% CI), WLW model K = 2, 1st Event (rs149354567 genotype G/GA): 1.62 (0.69; 3.79) | Recurrent primary end point events, Hazard Ratio (95% CI), WLW model K = 2, 2nd Event (rs149354567 genotype G/GA): 0.17 (0.03; 1.02) | Recurrent primary end point events, Hazard Ratio (95% CI), WLW model K = 2, Average (rs149354567 genotype G/GA): 1.35 (0.58; 3.12) | Recurrent primary end point events, Rate Ratio (95% CI), Negative binomial model (rs149354567 genotype G/GA): 0.91 (0.39; 2.08) | fewer cardiovascular events with colchicine compared to placebo (males, genotype C/C at rs10811106): 54% | Primary end point in males only, HR (95% CI) colchicine versus placebo (rs10811106 CT (16%), N total 182): 2.49 (0.92-6.75) | Coefficient, genetic association, chromosome 9 locus (primary efficacy end point) [5]: 1.705 | HR (hazard ratio), genetic association, chromosome 9 locus (primary efficacy end point) [5]: 5.50
